The test addresses T1, c-kit mutant D816V (Homo sapiens, UniProt P10721, D816V/DEL694-753).
T1 construct: residues 551-934, kinase insertion domain residues 694-753 deleted; 6x-histidine (N); made in house; host or cells: E. coli Arctic Express (DE3) RIL (Stratagene)
Briefly: c-Kit mutant D816V biochemical assay, AlphaScreen. The conditions noted are these: c-kit D816V biochemical inhibitory activity; read-out: Biochemical activity (IC50 μM) Kit D816V. The procedure: Compounds to be tested were dissolved in DMSO to a concentration of 20 mM. These were diluted 30 μl into 120 μl of DMSO (4 mM) and 1 μl was added to an assay plate. These were then serially diluted 1:3 (50 μl to 100 μl DMSO) for a total of 8 points. Plates were prepared such that each kinase reaction is 20 μl in 1× kinase buffer (25 mM HEPES, pH 7.2, 8 mM MgCl2, 2 mM MnCl2, 50 mM NaCl, 0.01% Brij, 1 mM DTT, 0.01% BSA), 5% DMSO and 10 μM ATP. […] After incubation of the kinase reaction for 30 minutes at room temperature, 5 μl of donor beads (Streptavidin coated beads (Perkin Elmer Life Science) final concentration 7.5 μg/ml) in stop buffer (25 mM Hepes pH 7.5, 100 mM EDTA, 0.01% BSA) was added, the sample was mixed and incubated for 20 minutes at room temperature before adding 5 μl of acceptor beads (PY20 coated beads (Perkin Elmer Life Science) final concentration 7.5 μg/ml) in stop buffer. The samples were incubated for 60 minutes at room temperature and the signal per well was read on EnVision reader. […] The signal vs. compound concentration was used to determine the IC50.
Cells were grown in Terrific Broth (TB) media to an OD600 of 0.6 at 37° C. at which temperature was reduced to 10° C., protein was induced with 1.0 mM IPTG for 18 hours and harvested by centrifugation at 8000×g for 20 minutes. Cells were re-suspended in 0.1M KPO4 pH 8.0, 250 mM NaCl, 10% Glycerol, 0.75% NP-40, 25 mM Imidazole, 5 mM BME with 0.2 mg/ml Lysosyme, 2.0 mM PMSF, 25 μg/ml DNAse I, incubated in ice for 30 minutes and lysed with a cell disruptor (MicroFluidics). The lysate was clarified by centrifugation at 20,000×g for 2 hours. The protein was captured with Talon resin (Clontech). Contaminating proteins were washed off with 25 mM Tris-HCl pH 8.3, 250 mM NaCl, 15% Glycerol, 1% Triton X-100, and protein eluted using 100 mM EDTA. The protein was further purified using Gel Filtration column 26/600 Superdex 200 (GE) in 50 mM Tris-HCl, pH 8.0, 250 mM NaCl, 15% Glycerol, 5 mM BME. The protein was aliquoted and flash-frozen in liquid Nitrogen.

SMILES strings stand for the structures.

T1 sequence (P10721 with tags, fused parts or gaps DEL694-753/D816V): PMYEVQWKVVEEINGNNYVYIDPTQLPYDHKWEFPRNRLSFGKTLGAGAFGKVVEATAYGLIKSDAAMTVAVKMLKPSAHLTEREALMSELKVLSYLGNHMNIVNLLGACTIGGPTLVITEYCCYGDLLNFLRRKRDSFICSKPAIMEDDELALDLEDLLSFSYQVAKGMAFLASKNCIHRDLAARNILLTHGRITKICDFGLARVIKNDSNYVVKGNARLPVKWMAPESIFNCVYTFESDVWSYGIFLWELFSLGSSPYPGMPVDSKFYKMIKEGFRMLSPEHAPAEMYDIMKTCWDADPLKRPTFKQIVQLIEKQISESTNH

Consider `CCNC(=O)N1CCN(c2ncnc3[nH]c(-c4ccc(F)cc4)cc23)CC1` [P-0088, N-ethyl-4-[6-(4-fluorophenyl)-7H-pyrrolo[2,3-d]pyrimidin-4-yl]piperazine-1-carboxamide], for which the IC50 (in general, the midpoint of a concentration-inhibition curve) was in the range of 1 to 10 µM.
Consider `O=C(NCc1ccc(F)cc1)N1CCN(c2ncnc3[nH]c(-c4ccc(F)cc4)cc23)CC1` [P-0090, N-[(4-fluorophenyl)methyl]-4-[6-(4-fluorophenyl)-7H-pyrrolo[2,3-d]pyrimidin-4-yl]piperazine-1-carboxamide], for which the concentration for half-maximal inhibition (IC50) lay in the range of 0.0001 to 1 µM.
The figure for `COc1cccc(CNC(=O)N2CCN(c3ncnc4[nH]c(-c5ccc(F)cc5)cc34)CC2)n1` [P-0122, 4-[6-(4-fluorophenyl)-7H-pyrrolo[2,3-d]pyrimidin-4-yl]-N-[(6-methoxy-2-pyridyl)methyl]piperazine-1-carboxamide] is 1 to 10 µM; for `O=C(NCc1ccc(F)cn1)N1CCN(c2ncnc3[nH]c(-c4cccnc4)cc23)CC1` [P-0124, N-[(5-fluoro-2-pyridyl)methyl]-4-[6-(3-pyridyl)-7H-pyrrolo[2,3-d]pyrimidin-4-yl]piperazine-1-carboxamide] it is 1 to 10 µM.
As for `C[C@H](NC(=O)N1CCN(c2ncnc3[nH]c(-c4ccc(F)cc4)cc23)CC1)c1ccc(F)cc1` [P-0126, N-[(1S)-1-(4-fluorophenyl)ethyl]-4-[6-(4-fluorophenyl)-7H-pyrrolo[2,3-d]pyrimidin-4-yl]piperazine-1-carboxamide], the figure is 0.0001 to 1 µM; as for `COc1ccc(CNC(=O)N2CCN(c3ncnc4[nH]c(-c5ccc(F)cc5)cc34)CC2)cn1` [P-0129, 4-[6-(4-fluorophenyl)-7H-pyrrolo[2,3-d]pyrimidin-4-yl]-N-[(6-methoxy-3-pyridyl)methyl]piperazine-1-carboxamide], 0.0001 to 1 µM; as for `O=C(NCc1ccc(Cl)cc1)N1CCN(c2ncnc3[nH]c(C4CC4)cc23)CC1` [P-0138, N-[(4-chlorophenyl)methyl]-4-(6-cyclopropyl-7H-pyrrolo[2,3-d]pyrimidin-4-yl)piperazine-1-carboxamide], 0.0001 to 1 µM.
As for `O=C(NCc1ccc(Cl)cc1)N1CCN(c2ncnc3[nH]c(Cl)cc23)CC1` [P-0139, N-[(4-chlorophenyl)methyl]-4-(6-chloro-7H-pyrrolo[2,3-d]pyrimidin-4-yl)piperazine-1-carboxamide], the figure is 1 to 10 µM.
Turning to `COc1ncc(F)cc1CNC(=O)N1CCN(c2ncnc3[nH]c(-c4cccnc4)cc23)CC1` [P-0140, N-[(5-fluoro-2-methoxy-3-pyridyl)methyl]-4-[6-(3-pyridyl)-7H-pyrrolo[2,3-d]pyrimidin-4-yl]piperazine-1-carboxamide], the IC50 is 1 to 10 µM.
As for `Cc1ccc(NS(=O)(=O)N2CCN(c3ncnc4[nH]c(-c5ccc(Cl)cc5)cc34)CC2)cc1` [P-0142, 4-[6-(4-chlorophenyl)-7H-pyrrolo[2,3-d]pyrimidin-4-yl]-N-(p-tolyl)piperazine-1-sulfonamide], the figure is 10 to 200 µM.
Turning to `O=C(NC(=O)N1CCN(c2ncnc3[nH]c(-c4ccc(F)cc4)cc23)CC1)c1ccccc1` [P-0143, N-benzoyl-4-[6-(4-fluorophenyl)-7H-pyrrolo[2,3-d]pyrimidin-4-yl]piperazine-1-carboxamide], the IC50 was in the range of 1 to 10 µM.
As for `COc1ccc([C@@H](C)NC(=O)N2CCN(c3ncnc4[nH]c(-c5ccc(F)cc5)cc34)CC2)cc1` [P-0145], the figure is 10 to 200 µM; as for `C[C@@H](NC(=O)N1CCN(c2ncnc3[nH]c(-c4ccc(F)cc4)cc23)CC1)c1ccc(F)cc1` [P-0146, N-[(1R)-1-(4-fluorophenyl)ethyl]-4-[6-(4-fluorophenyl)-7H-pyrrolo[2,3-d]pyrimidin-4-yl]piperazine-1-carboxamide], 10 to 200 µM.
As for `C[C@@H](NC(=O)N1CCN(c2ncnc3[nH]c(-c4ccc(F)cc4)cc23)CC1)c1ccc(F)cc1` [P-0147, N-[(1R)-1-(4-fluorophenyl)ethyl]-4-[6-(4-fluorophenyl)-7H-pyrrolo[2,3-d]pyrimidin-4-yl]piperazine-1-carboxamide], the figure is 1 to 10 µM; as for `O=C(NC1CCCC1)N1CCN(c2ncnc3[nH]c(-c4ccc(F)cc4)cc23)CC1` [P-0148, N-cyclopentyl-4-[6-(4-fluorophenyl)-7H-pyrrolo[2,3-d]pyrimidin-4-yl]piperazine-1-carboxamide], 10 to 200 µM; as for `O=C(Nc1cccnc1)N1CCN(c2ncnc3[nH]ccc23)CC1` [P-0152, N-(3-pyridyl)-4-(7H-pyrrolo[2,3-d]pyrimidin-4-yl)piperazine-1-carboxamide], 0.0001 to 1 µM.
Turning to `Cc1ccccc1C(=O)c1c[nH]c2ncnc(N3CCN(C(=O)NCc4ccc(F)cc4)CC3)c12` [P-0160, N-[(4-fluorophenyl)methyl]-4-[5-(2-methylbenzoyl)-7H-pyrrolo[2,3-d]pyrimidin-4-yl]piperazine-1-carboxamide], the half-maximal inhibitory concentration (IC50) is 1 to 10 µM.
As for `O=C(NCCc1ccc(Cl)cc1)N1CCN(c2ncnc3[nH]c(-c4ccc(F)cc4)cc23)CC1` [P-0161, N-[2-(4-chlorophenyl)ethyl]-4-[6-(4-fluorophenyl)-7H-pyrrolo[2,3-d]pyrimidin-4-yl]piperazine-1-carboxamide], the figure is 0.0001 to 1 µM; as for `O=C(NCCc1ccccc1)N1CCN(c2ncnc3[nH]c(-c4ccc(F)cc4)cc23)CC1` [P-0162, 4-[6-(4-fluorophenyl)-7H-pyrrolo[2,3-d]pyrimidin-4-yl]-N-phenethyl-piperazine-1-carboxamide], 10 to 200 µM; as for `O=C(NCc1cccc(F)c1)N1CCN(c2ncnc3[nH]ccc23)CC1` [P-0163, N-[(3-fluorophenyl)methyl]-4-(7H-pyrrolo[2,3-d]pyrimidin-4-yl)piperazine-1-carboxamide], 10 to 200 µM.
As for `O=C(NCCc1ccc(F)cc1)N1CCN(c2ncnc3[nH]ccc23)CC1` [P-0164, N-[2-(4-fluorophenyl)ethyl]-4-(7H-pyrrolo[2,3-d]pyrimidin-4-yl)piperazine-1-carboxamide], the figure is 10 to 200 µM; as for `O=C(NC(=O)N1CCN(c2ncnc3[nH]ccc23)CC1)c1ccccc1` [P-0174, N-benzoyl-4-(7H-pyrrolo[2,3-d]pyrimidin-4-yl)piperazine-1-carboxamide], 10 to 200 µM.
As for `O=C(NCc1ccc(F)cc1)N1CCN(c2ncnc3[nH]cc(C4CC4)c23)CC1` [P-0179, 4-(5-cyclopropyl-7H-pyrrolo[2,3-d]pyrimidin-4-yl)-N-[(4-fluorophenyl)methyl]piperazine-1-carboxamide], the figure is 1 to 10 µM; as for `Cc1ccccc1C(=O)c1c[nH]c2ncnc(N3CCN(C(=O)OC(C)(C)C)CC3)c12` [P-0187, tert-butyl 4-[5-(2-methylbenzoyl)-7H-pyrrolo[2,3-d]pyrimidin-4-yl]piperazine-1-carboxylate], 0.0001 to 1 µM; as for `CC(C)(C)OC(=O)N1CCN(c2ncnc3[nH]c(C(=O)Nc4ccccc4)cc23)CC1` [P-0211, tert-butyl 4-[6-(phenylcarbamoyl)-7H-pyrrolo[2,3-d]pyrimidin-4-yl]piperazine-1-carboxylate], 0.0001 to 1 µM.
Turning to `COc1cccc(NC(=O)N2CCN(c3ncnc4[nH]cc(-c5ccccc5)c34)CC2)c1` [P-0228, N-(3-methoxyphenyl)-4-(5-phenyl-7H-pyrrolo[2,3-d]pyrimidin-4-yl)piperazine-1-carboxamide], the half-maximal inhibitory concentration (IC50) is 1 to 10 µM.
As for `COc1cccc(NC(=O)N2CCN(c3ncnc4[nH]c(-c5cccnc5)cc34)CC2)c1` [P-0231, N-(3-methoxyphenyl)-4-[6-(3-pyridyl)-7H-pyrrolo[2,3-d]pyrimidin-4-yl]piperazine-1-carboxamide], the figure is 1 to 10 µM; as for `COc1cccc(NC(=O)N2CCN(c3ncnc4[nH]c(-c5ccccc5)cc34)CC2)c1` [P-0238, N-(3-methoxyphenyl)-4-(6-phenyl-7H-pyrrolo[2,3-d]pyrimidin-4-yl)piperazine-1-carboxamide], 10 to 200 µM; as for `COc1cc2ncnc(-c3ccc(NS(C)(=O)=O)c(F)c3)c2cc1OC` [P-0272, N-[4-(6,7-dimethoxyquinazolin-4-yl)-2-fluoro-phenyl]methanesulfonamide], 0.0001 to 1 µM.
Consider `COc1ccc(S(=O)(=O)Nc2ccc(-c3ncnc4cc(OC)c(OC)cc34)cc2F)cc1` [P-0273, N-[4-(6,7-dimethoxyquinazolin-4-yl)-2-fluoro-phenyl]-4-methoxy-benzenesulfonamide], for which the IC50 was in the range of 0.0001 to 1 µM.

(Values after patent US10227357B2, “Compounds and methods for kinase modulation, and indications therefor” (Plexxikon Inc., priority 2012, dated 2019).)
